Results from publication PMC9674596, “Origin of acetylcholine antagonism in ELIC, a bacterial pentameric ligand-gated ion channel” (Communications Biology, 2022).

Legend:
Format in all cases: cell-based, Erwinia chrysanthemi
ELIC A75D = biological target: T1, ELIC A75D (Dickeya chrysanthemi, UniProt P0C7B7, A75D/INS163G); assay: Two-electrode voltage clamp, A75D mutant ELIC expressed in Xenopus laevis oocytes; settings: A75D
T1 construct: expressed in transfected cells; host or cells: Xenopus laevis oocytes injected with cRNA from ELIC-pTLN

ELIC A75D/F133W = biological target: T2, ELIC A75D/F133W (Dickeya chrysanthemi, UniProt P0C7B7, A75D/F133W/INS163G); assay: Two-electrode voltage clamp, A75D/F133W double mutant ELIC expressed in Xenopus laevis oocytes
T2 construct: expressed in transfected cells; host or cells: Xenopus laevis oocytes injected with cRNA; DNA construct synthesised by Twist Bioscience
Description: (§1) Stage V-VI Xenopus laevis oocytes were isolated[72] and deflocculated enzymatically in ND96 buffer without Ca^2+ (96 mM NaCl, 2 mM KCl, 1 mM MgCl2, 2 mM pyruvate, 5 mM HEPES, pH 7.4), but supplemented with 1 mg/mL collagenase B and 1 mg/mL trypsin inhibitor, for 2 h at room temperature under constant stirring. The deflocculation buffer was then gradually removed by washing the oocytes in ND96 buffer (96 mM NaCl, 2 mM KCl, 1 mM MgCl2, 1 mM CaCl2, 2 mM pyruvate, 5 mM HEPES, pH 7.4) for several iterations. The oocytes were then allowed to stir for an additional hour at room temperature under constant stirring with the buffer being periodically replaced until clear. To obtain optimal receptor expression, individually selected and healthy oocytes were injected with 0.2 ng cRNA for wild-type ELIC and 5 ng cRNA for mutants. Subsequently, oocytes were incubated for one day at 16 °C in ND96^+ buffer (96 mM NaCl, 2 mM KCl, 1 mM MgCl2, 1 mM CaCl2, 2 mM pyruvate, and 5 mM HEPES at pH 7.6). After expression, injected oocytes were placed in a RC-1Z oocyte chamber (Harvard Apparatus; Hamden, CT) containing buffer (pH 7.4) composed of 150 mM NaCl, 0.5 mM BaCl2, 10 mM HEPES, and 1 mM dithiothreitol or 1 µM atropine if cysteamine, or ACh, was used in the experiment, respectively. The presence of the reducing agent, dithiothreitol, ensures that the sulfhydryl group of cysteamine remains reduced.
(§2) Once in the oocyte chamber, whole-cell currents were recorded using a two-electrode voltage-clamp apparatus (OC-725C oocyte clamp; Harvard Apparatus), with a buffer flow rate of 5–10 mL min^−1. Currents in response to various additions of cysteamine and/or ACh, were measured with the transmembrane voltage clamped at −60 mV. Dose response curves for each wild-type and mutant ELIC were acquired from at least five oocytes in two different batches.
(§3) For identifying the half maximal effective concentration (EC50) and apparent Hill coefficient (nH) of cysteamine, dose response curves were created by taking the magnitude of each cysteamine-activated peak current (I) and normalizing this value to the maximal peak current in the presence of excess agonist (Imax). The log (base 10) cysteamine concentration in molar was then plotted on the x-axis against the fractional response (I/Imax) on the y-axis. The data was fitted using nonlinear regression with a variable slope sigmoidal dose response (Eq. 1, below) in GraphPad Prism (v.8.0.0).1 y=1/1+10^nH^LogEC50−X
(§4) Individual EC50 and Hill coefficients were averaged for each oocyte to derive a mean ± standard deviation. For identifying a half maximal inhibitory concentration (IC50) and Hill coefficient of ACh, a concentration of cysteamine corresponding to its EC50 was used in the presence of increasing concentrations of ACh. Peak currents elicited from cysteamine with ACh (I) were normalized to the initial cysteamine peak current in the absence of ACh (Io). The log (base 10) ACh concentration was then plotted on the x-axis against the fractional response (I/Io) on the y-axis. Subsequent steps were the same as above for deriving a cysteamine EC50 and Hill coefficient. The individual IC50 and Hill coefficients were averaged for each oocyte to derive a mean ± one standard deviation. Lastly, to identify four normalized response values, cysteamine at the 10% maximal effective concentration (EC10), 20% maximal effective concentration (EC20), EC50 and 90% maximal effective concentration (EC90), was applied in the presence and absence of 25 mM ACh. The cysteamine-activated peak current with 25 mM ACh, was normalized to the cysteamine-activated peak current without ACh.

ELIC I79Y = biological target: T3, ELIC I79Y (Dickeya chrysanthemi, UniProt P0C7B7, I79Y/INS163G); assay: Two-electrode voltage clamp, I79Y mutant ELIC expressed in Xenopus laevis oocytes
T3 construct: expressed in transfected cells; host or cells: Xenopus laevis oocytes injected with cRNA from ELIC-pTLN
Description: as §1, §2, §3
as §4, with “The cysteamine-activated peak current with 25 mM ACh, was normalized to the cysteamine-activated peak current without ACh.” left out

ELIC Y38W [1] = assay: Two-electrode voltage clamp, Y38W mutant ELIC expressed in Xenopus laevis oocytes; settings: Y38W
Description: as §1, §2, §3, §4

ELIC Y38W [2] = biological target: ELIC Y38W (Dickeya chrysanthemi, UniProt P0C7B7, Y38W); assay: as above; settings: Y38W
Description: as §1, §2, §3, §4

ELIC F133W = ELIC F133W (Dickeya chrysanthemi, UniProt P0C7B7, F133W); assay: cell-based; settings: F133W
Description: as §1, §2, §3, §4

wild-type ELIC = biological target: T4, wild-type ELIC (Dickeya chrysanthemi, UniProt P0C7B7, INS163G); assay: Two-electrode voltage clamp, whole-cell currents of wild-type ELIC expressed in Xenopus laevis oocytes
T4 construct: expressed in transfected cells; host or cells: Xenopus laevis oocytes injected with cRNA from ELIC-pTLN
Description: as §1, §2, §3
as §4, with “[…] […]” for “For identifying a half maximal inhibitory concentration (IC50) and Hill coefficient of ACh, a concentration of cysteamine corresponding to its EC50 was used in the presence of increasing concentrations of ACh. Peak currents elicited from cysteamine with ACh (I) were normalized to the initial cysteamine peak current in the absence of ACh (Io).”

[3] = cysteamine as agonist, read-out: Activation EC50
[4] = ACh 0.5 mM to 50 mM, followed by 5 mM cysteamine
[5] = read-out: Cysteamine concentration corresponding to EC90

With NCCS [cysteamine] the “Cysteamine concentration corresponding to EC10” value (ELIC A75D) was 0.6 mM, the “Cysteamine concentration corresponding to EC20” value (ELIC A75D) was 0.9 mM and the “Increase in EC50 for cysteamine relative to wild-type” value (ELIC A75D) was 3 fold. The “Activation Hill coefficient” value (ELIC A75D; cysteamine as agonist) was 2.3 ± 0.5, the EC50 (ELIC A75D; [3]) was 1.6 ± 0.4 mM and the “Peak current on application of ligand alone” value (“Peak current on application” for short) (ELIC A75D; [4]) was “robust peak current”. The EC90 (ELIC A75D; [5]) was 4.2 mM, the “Cysteamine concentration corresponding to EC10” value (ELIC A75D/F133W) was 3.9 mM and the “Cysteamine concentration corresponding to EC20” value (ELIC A75D/F133W) was 4.8 mM. For the same compound, the “Activation by amine (whole-cell response)” value (ELIC A75D/F133W; 25 mM amine, cysteamine at its EC50) was “still activated”, the “Activation Hill coefficient” value (ELIC A75D/F133W; cysteamine as agonist) was 3.8 ± 0.3 and the EC50 (ELIC A75D/F133W; [3]) was 6.9 ± 0.7 mM. The EC90 (ELIC A75D/F133W; [5]) was 12.3 mM, the “Increase in EC50 for cysteamine relative to wild-type” value (ELIC I79Y) was 24 fold and the “Peak current on application” value (ELIC I79Y; [4]) was “robust peak current”. The “Activation Hill coefficient” value (ELIC I79Y; estimate, cysteamine application for 30 s, 1.5 mM to 100 mM) was 2.2 ± 0.3, the EC50 (ELIC I79Y; estimate, cysteamine application for 30 s, 1.5 mM to 100 mM, read-out: Activation EC50) was 14 ± 1 mM and the “Change in EC50 for cysteamine compared to wild-type” value (ELIC Y38W [1]) was “unchanged”. For the same compound, the “Cysteamine concentration corresponding to EC10” value (ELIC Y38W [2]) was 0.1 mM, the “Cysteamine concentration corresponding to EC20” value (ELIC Y38W [2]) was 0.2 mM and the “Activation Hill coefficient” value (ELIC Y38W [2]; cysteamine as agonist) was 1.4 ± 0.2. For the same compound, the EC50 (ELIC Y38W [2]; [3]) was 0.5 ± 0.1 mM, the “Peak current on application” value (ELIC Y38W [2]; [4]) was “robust peak current” and the EC90 (ELIC Y38W [2]; [5]) was 2.6 mM. The “Cysteamine concentration corresponding to EC10” value (ELIC F133W) was 1.6 mM, the “Cysteamine concentration corresponding to EC20” value (ELIC F133W) was 2.3 mM and the “Increase in EC50 for cysteamine relative to wild-type” value (ELIC F133W) was 7 fold. For the same compound, the “Activation Hill coefficient” value (ELIC F133W; cysteamine as agonist) was 2.3 ± 0.3, the EC50 (ELIC F133W; [3]) was 4.3 ± 0.6 mM and the “Peak current on application” value (ELIC F133W; [4]) was “robust peak current”. The EC90 (ELIC F133W; [5]) was 11.3 mM, the “Cysteamine concentration corresponding to EC10” value (wild-type ELIC; WT) was 0.2 mM and the “Cysteamine concentration corresponding to EC20” value (wild-type ELIC; WT) was 0.3 mM. The “Activation Hill coefficient” value (wild-type ELIC; WT ELIC, agonist activation) was 2.6 ± 0.4, the EC50 (wild-type ELIC; WT ELIC, agonist-activated peak current, −60 mV, mean ± s.d., read-out: Activation EC50) was 0.6 ± 0.1 mM and the “Peak current on application” value (wild-type ELIC; WT, ACh 0.5 mM to 50 mM, followed by 5 mM cysteamine) was “robust peak current”. It also gave an EC90 (wild-type ELIC; WT, read-out: Cysteamine concentration corresponding to EC90) of 1.3 mM.
